Data as given in patent publication US20060052384A1, “Aryl piperidine derivatives as inducers of ldl-receptor expression for the treatment of hypercholesterolemia” (priority 2002, published 2006).

test system: not given; assay: not given; settings: not given

First: CCOc1cc(CC)ccc1C1CCN(CCCCNC(=O)c2sc(-c3ccc(C(F)(F)F)cc3)nc2CO)CC1 [Example 4, 4-Hydroxymethyl-2-(4-trifluoromethyl-phenyl)-thiazole-5-carboxylic acid {4-[4-(2-ethoxy-4-ethyl-phenyl)-piperidin-1-yl]-butyl}-amide]
Second: COc1c(C2CCN(CCCCNC(=O)c3sc(-c4ccc(C#N)cc4)nc3CO)CC2)ccc2c1CCCC2 [Example 7, 2-(4-Cyano-phenyl)-hydroxymethyl-thiazole-5-carboxylic acid {4-[4-(1-methoxy-5,6,7,8-tetrahydro-naphthalen-2-yl)-piperidin-1-yl]-butyl}-amide]
The melting point of the first is lower: 150 °C for the first, 212 °C for the second.

First: COc1c(C2CCN(CCCCNC(=O)c3sc(-c4ccc(Cl)cc4)nc3C)CC2)ccc2c1CCCC2 [Example 12, 2-(4-Chloro-phenyl)4-methyl-thiazole-5-carboxylic acid {4-[4-(1-methoxy-5,6,7,8-tetrahydro-naphthalen-2-yl)-piperidin-1-yl]-butyl}-amide]
Second: COc1c(C2CCN(CCCCNC(=O)c3ccc(-c4ccc(Cl)cc4)nc3)CC2)ccc2c1CCCC2 [Example 38, 6-(4-Chloro-phenyl)-N-{4-[4-(1-methoxy-5,6,7,8-tetrahydro-naphthalen-2-yl)-piperidin-1-yl]-butyl}-nicotinamide]
The melting point of the first is lower: 151 °C for the first, 184 to 186 °C for the second.

First: COc1c(C2CCN(CCCCNC(=O)c3[nH]nc(-c4ccc(C#N)cc4)c3CO)CC2)ccc2c1CCCC2 [Example 14]
Second: COc1c(C2CCN(CCCCNC(=O)c3oc(-c4ccc(C#N)cc4)nc3CO)CC2)ccc2c1CCCC2 [Example 16, 2-(4-Cyano-phenyl)-4-hydroxymethyl-oxazole-5-carboxylic acid {4-[4-(1-methoxy-5,6,7,8-tetrahydro-naphthalen-2-yl)-piperidin-1-yl]-butyl}-amide]
The melting point of the first is higher: 185 to 186 °C for the first, 160 to 162 °C for the second.

First: COc1c(C2CCN(CCCCNC(=O)c3oc(-c4ccc(C#N)cc4)nc3C)CC2)ccc2c1CCCC2 [Example 15, 2-(4-Cyano-phenyl)-4-methyl-oxazole-5-carboxylic acid {4-[4-(1-methoxy-5,6,7,8-tetrahydro-naphthalen-2-yl)-piperidin-1-yl]-butyl}amide]
Second: COc1c(C2CCN(CCCCNC(=O)c3ccc(-c4ccc(C#N)cc4)nc3)CC2)ccc2c1CCCC2 [Example 39, 6-(4-Cyano-phenyl)-N-{4-[4-(1-methoxy-5,6,7,8-tetrahydro-naphthalen-2-yl)-piperidin-1-yl]-butyl}-nicotinamide]
The melting point of the first is lower: 157 °C for the first, 166 to 168 °C for the second.

First: COc1c(C2CCN(CCCCNC(=O)c3ccc(-c4ccc(C(=O)N(C)C)cc4)cc3)CC2)ccc2c1CCCC2 [Example 19]
Second: COc1c(C2CCN(CCCCNC(=O)c3ccc(-c4ccc(C(=O)C(F)(F)F)cc4)cc3)CC2)ccc2c1CCCC2 [Example 26, 4′-(2,2,2-Trifluoro-acetyl)-biphenyl-4-carboxylic acid {4-[4-(1-methoxy-5,6,7,8-tetrahydro-naphthalen-2-yl)-piperidin-1-yl]-butyl}-amide]
The melting point of the first is lower: 170 °C for the first, 197 to 199 °C for the second.

First: COc1c(C2CCN(CCCCNC(=O)c3ccc(-c4ccc(C(C)=O)s4)cc3)CC2)ccc2c1CCCC2 [Example 20, 4-(5-Acetyl-thiophen-2-yl)-N-{4-[4-(1-methoxy-5,6,7,8-tetrahydro-naphthalen-2-yl)-piperidin-1-yl]-butyl}-benzamide]
Second: COc1c(C2CCN(CCCCNC(=O)c3ccc(-c4ccc(Cl)s4)cc3)CC2)ccc2c1CCCC2 [Example 23, 4-(5-Chloro-thiophen-2-yl)-N-{4-[4-(1-methoxy-5,6,7,8-tetrahydro-naphthalen-2-yl)-piperidin-1-yl]-butyl}-benzamide]
The melting point of the first is higher: 216 to 218 °C for the first, 185 to 187 °C for the second.

First: COc1c(C2CCN(CCCCNC(=O)c3ccc(-c4ccc(NS(=O)(=O)CC(F)(F)F)cc4)cc3)CC2)ccc2c1CCCC2 [Example 22, 4′-(2,2,2-Trifluoro-ethanesulfonylamino)-biphenyl4-carboxylic acid {4-[4-(1-methoxy 5,6,7,8-tetrahydro-naphthalen-2-yl)-piperidin-1-yl]-butyl}-amide]
Second: COc1c(C2CCN(CCCCNC(=O)c3ccc(-c4ccc(NC(=O)C(F)(F)F)cc4)cc3)CC2)ccc2c1CCCC2 [Example 29, 4′-(2,2,2-Trifluoro-acetylamino)-biphenyl-4-carboxylic acid {4-[4-(1-methoxy-5,6,7,8-tetrahydro-naphthalen-2-yl)-piperidin-1-yl]-butyl}-amide]
The melting point of the first is lower: 182 to 184 °C for the first, 226 to 228 °C for the second.

First: COc1c(C2CCN(CCCCNC(=O)c3ccc(-c4ccc(NS(=O)(=O)C(C)C)cc4)cc3)CC2)ccc2c1CCCC2 [Example 24]
Second: COc1c(C2CCN(CCCCNC(=O)c3ccc(-c4ccc(Cl)nc4)cc3)CC2)ccc2c1CCCC2 [Example 34]
The melting point of the first is lower: 188 to 190 °C for the first, 202 to 204 °C for the second.

First: COc1c(C2CCN(CCCCNC(=O)c3ccc(-c4ccc(Cl)cc4)c(O)c3)CC2)ccc2c1CCCC2 [Example 25]
Second: COc1c(C2CCN(CCCCNC(=O)c3ccc(-c4ccc(Cl)cn4)cc3)CC2)ccc2c1CCCC2 [Example 32, 4-(5-Chloro-pyridin-2-yl)-N-{4-[4-(1-methoxy-5,6,7,8-tetrahydro-naphthalen-2-yl)-piperidin-1-yl]-butyl}-benzamide]
The melting point of the first is lower: 199 °C for the first, 213 to 215 °C for the second.

First: COc1c(C2CCN(CCCCNC(=O)c3ccc(-c4ccc(C#N)cn4)cc3)CC2)ccc2c1CCCC2 [Example 30, 4-(5-Cyano-pyridin-2-yl)-N-{4-[4-(1-methoxy-5,6,7,8-tetrahydro-naphthalen-2-yl)-piperidin-1-yl]-butyl}-benzamide]
Second: COc1c(C2CCN(CCCCNC(=O)c3ccc(-c4ccc(C#N)nc4)cc3)CC2)ccc2c1CCCC2 [Example 43, 4-(6-Cyano-pyridin-3-yl)-N-{4-[4-(1-methoxy-5,6,7,8-tetrahydro-naphthalen-2-yl)-piperidin-1-yl]-butyl}-benzamide]
The melting point of the first is higher: 220 to 222 °C for the first, 179 to 181 °C for the second.

Compared with `COc1c(C2CCN(CCCCNC(=O)c3ccc(-c4ccsc4C#N)cc3)CC2)ccc2c1CCCC2` [Example 31, 4-(2-Cyano-thiophen-3-yl)-N-{4-[4-(1-methoxy-5,6,7,8-tetrahydro-naphthalen-2-yl)-piperidin-1-yl]-butyl}-benzamide], `COc1c(C2CCN(CCCCNC(=O)c3ccc(-c4ccc(C#N)o4)cc3)CC2)ccc2c1CCCC2` [Example 36] is lower in melting point: 236 to 238 °C for the first, 180 to 182 °C for the second.

Compared with `COc1c(C2CCN(CCCCNC(=O)c3ccc(-c4csc(C(C)=O)c4)cc3)CC2)ccc2c1CCCC2` [Example 33, 4-(5-Acetyl-thiophen-3-yl)-N-{4-[4-(1-methoxy-5,6,7,8-tetrahydro-naphthalen-2-yl)-piperidin-1-yl]-butyl}-benzamide], `COc1c(C2CCN(CCCCNC(=O)c3ccc(-c4cnc(C#N)nc4)cc3)CC2)ccc2c1CCCC2` [Example 44, 4-(2-Cyano-pyrimidin-5-yl)-N-{4-[4-(1-methoxy-5,6,7,8-tetrahydro-naphthalen-2-yl)-piperidin-1-yl]-butyl}-benzamide] is lower in melting point: 208 to 210 °C for the first, 202 °C for the second.

First: COc1c(C2CCN(CCCCNC(=O)c3ccc(-c4ccc(Cl)nn4)cc3)CC2)ccc2c1CCCC2 [Example 35, 4-(6-Chloro-pyridazin-3-yl)-N-{4-[4-(1-methoxy-5,6,7,8-tetrahydro-naphthalen-2-yl)-piperidin-1-yl]-butyl}-benzamide]
Second: COc1c(C2CCN(CCCCNC(=O)c3ccc(-c4ccc(Cl)s4)nc3)CC2)ccc2c1CCCC2 [Example 40, 6-(5-Chloro-thiophen-2-yl)-N-{4-[4-(1-methoxy-5,6,7,8-tetrahydro-naphthalen-2-yl)-piperidin-1-yl]-butyl}-nicotinamide]
The melting point of the first is higher: 192 to 194 °C for the first, 175 to 177 °C for the second.

Compared with `COc1c(C2CCN(CCCCNC(=O)c3ccc(-c4ccc(Cl)cc4)cn3)CC2)ccc2c1CCCC2` [Example 37, 5-(4-Chloro-phenyl)-pyridine-2-carboxylic acid {4-[4-(1-methoxy-5,6,7,8-tetrahydro-naphthalen-2-yl)piperidin-1-yl]-butyl}-amide], `COc1c(C2CCN(CCCCNC(=O)c3ccc(-c4ccc(C#N)cc4)cn3)CC2)ccc2c1CCCC2` [Example 41, 5-(4-Cyano-phenyl)-pyridine-2-carboxylic acid {4-[4-(1-methoxy-5,6,7,8-tetrahydro-naphthalen-2-yl)-piperidin-1-yl]-butyl}-amide] is higher in melting point: 103 to 105 °C for the first, 140 °C for the second.

In the case of `COc1c(C2CCN(CCCCNC(=O)c3ccc(-c4ccc(C#N)s4)nc3)CC2)ccc2c1CCCC2` [Example 42, 6-(5-Cyano-thiophen-2-yl)-N-{4-[4-(1-methoxy-5,6,7,8-tetrahydro-naphthalen-2-yl)-piperidin-1-yl]-butyl}-nicotinamide], the melting point is reported as 186 to 188 °C.

test system: LDL-r promoter and the luciferase reporter gene in HepG2 cells; assay: In vitro assay: induction of luciferase activity in HepG2 cells stably transfected with LDL-r promoter/luciferase reporter construct; format: cell-based; settings: Homo sapiens, 24 hours incubation, RPMI medium with 2% lipoprotein-deficient serum, tested 10^-6M to 10^-9M
Experimental: HepG2 cells, stably transfected with a construct comprising the LDL-r promoter and the luciferase reporter gene, were seeded at 50,000 cells/well in 96 well plates. After 1 day cells were incubated with compounds for 24 hours in RPMI medium containing 2% of lipoprotein-deficient serum. Compounds were tested from 10^−6M to 10^−9M. Cell lysates were prepared and the luciferase activity was measured by the luciferase assay system (Promega). Induction of luciferase activity was calculated taking untreated cells as control. The ED50 of each compounds was determined compared to the ED50 of an internal standard.

In order of falling EC50:
1. COc1c(C2CCN(CCCCNC(=O)c3ccc(-c4ccc(Cl)cn4)cc3)CC2)ccc2c1CCCC2 [Example 32, 4-(5-Chloro-pyridin-2-yl)-N-{4-[4-(1-methoxy-5,6,7,8-tetrahydro-naphthalen-2-yl)-piperidin-1-yl]-butyl}-benzamide]  10 nM
2. Cn1cc(C2CCN(CCCCNC(=O)c3ccc(-c4ccc(C(F)(F)F)cc4)c(CO)c3)CC2)c2ccccc21 [Example 1]  7 nM
